Laboratory results: patent US20240139154A1, “Methods of Reducing Risk of Prostate Cancer Progression” (Astellas Pharma Inc., priority 2021, published 2024)
Read-outs that look alike come from different tables or passages of the source.

Columns and labels:
[1] = ENACT study: adverse events (safety set); type: in vivo, human; settings: During 1-year continued follow-up period, n = 112
[2] = system: low risk or intermediate risk prostate cancer; experiment: ENACT study: biopsy outcomes (negative biopsies, percentage of cancer-positive cores) at 1 and 2 years; type: in vivo, human
Description: This was followed by a one year follow up period, and a further continued follow-up period of at least one-year, until the last patient completed the 24-month visit.
(§1) Secondary endpoints were (1) Incidence of negative biopsies for cancer at 1 year and 2 years; (2) percentage of cancer-positive cores at 1 year and 2 years; (3) time to PSA progression; and (4) incidence of a secondary rise in serum PSA at 1 year and 2 years. “PSA progression” is defined as a ≥25% increase in serum PSA from baseline, a ≥25% increase above nadir, or an absolute increase of ≥2 ng/mL.
(§2) Secondary endpoint of incidence of negative biopsy for cancer was summarized using frequencies and percentages at one and two years by treatment groups. […] Analysis of time to PSA progression was performed using the same method used to analyze the primary endpoint. P-values were adjusted using the Bonferroni-Holm method to control type I error at 0.05 for selected secondary endpoints.

[3] = system: low risk or intermediate risk prostate cancer; settings: for Hazard Ratio (95% CI), time to prostate cancer progression: enzalutamide/AS, Cox regression, HR<1 favors enzalutamide
[4] = system: serum PSA; experiment: ENACT study: time to PSA progression and secondary rise in serum PSA; type: in vivo, human; settings: for Hazard Ratio (95% CI), time to PSA progression: Cox regression
Experimental: as §1, §2

[5] = ENACT study: adverse events (safety set); type: in vivo, human
Description: The full analysis set (FAS) was the patients who were enrolled in the study and randomized to one or the other of the study arms. The safety set (SAF) was redefined in the Statistical Analysis Plan (SAP) to include only subjects who took the study drug. The FAS was 227 patients (113 in the active surveillance arm, 114 in the enzalutamide arm). The SAF had 112 subjects in the enzalutamide arm.
As expected, the incidence of Drug-Related Adverse Events (AEs) were reported in 92.0% (103/112) of the enzalutamide patients during the treatment period plus 30 days. Of the patients on active surveillance, 54.9% (62/113) experienced an adverse event from randomization until date completed 12 months on study plus 30 days. The most common Drug-Related AE seen in the enzalutamide group was fatigue (52.7%). Adverse events which occurred in ≥3.5% of enzalutamide patients were fatigue (55.4%), gynecomastia (36.6%), nipple pain (30.4%), breast tenderness (25.9%), and erectile dysfunction (17.9%). The only AE that occurred in ≥3.5% of the patients on active surveillance was hypertension (7.1%). […] Observed AE data were consistent with the known safety profile of enzalutamide.

**Q.** For `CNC(=O)c1ccc(N2C(=S)N(c3ccc(C#N)c(C(F)(F)F)c3)C(=O)C2(C)C)cc1F` [enzalutamide, Enzalutamide], which “AEs leading to death, %” value [1] is on record?
**A.** The value was 1.8%.

**Q.** What about the “Percentage of cancer-positive cores at 1 year, LS mean change from baseline ± SE” value ([2]; 1 year, n = 90) of the same compound?
**A.** Its value is −12.97 ± 1.99%.

**Q.** What about the “Biopsy result at 1 year: Positive, %” value ([2]; 1 year, n = 114) of the same compound?
**A.** The value was “(46.5) %”.

**Q.** What about the “Biopsy result at 1 year: Unknown, %” value ([2]; 1 year, n = 114) of the same compound?
**A.** The value was “(18.4) %”.

**Q.** What about the “Incidence of negative biopsy at 1 year: Negative, %” value ([2]; 1 year, n = 114) of the same compound?
**A.** Its value is 35.1%.

**Q.** And the “Percentage of cancer-positive cores at 2 years, LS mean change from baseline ± SE” value ([2]; 2 years, n = 53)?
**A.** The value was −6.68 ± 2.37%.

**Q.** And the “Biopsy result at 2 years: Positive, %” value ([2]; 2 years, n = 100)?
**A.** The value was “(47.0) %”.

**Q.** And the “Biopsy result at 2 years: Unknown, %” value ([2]; 2 years, n = 100)?
**A.** The value was “(34.0) %”.

**Q.** And the “Incidence of negative biopsy at 2 years: Negative, %” value ([2]; 2 years, n = 100)?
**A.** The value was 19.0%.

**Q.** And the “reduction in the mean percentage of cancer-positive cores within the enzalutamide arm” value ([2]; between baseline and year two)?
**A.** The value was 6.7%.

**Q.** And the “Percentage of cancer-positive cores at 1 year, Difference in LS means ± SE” value ([2]; enzalutamide vs AS, 1 year)?
**A.** Its value is −10.07 ± 2.40%.

**Q.** And the “Percentage of cancer-positive cores at 2 years, Difference in LS means ± SE” value ([2]; enzalutamide vs AS, 2 years)?
**A.** Its value is −5.15 ± 3.17%.

**Q.** What about the “OR (95% CI), negative biopsy at 1 year” value ([2]; enzalutamide vs AS, exact logistic regression, 1 year) of the same compound?
**A.** The value was 3.5 (1.76, 6.92).

**Q.** What about the “OR (95% CI), negative biopsy at 2 years” value ([2]; enzalutamide vs AS, exact logistic regression, 2 years) of the same compound?
**A.** Its value is 1.6 (0.66, 4.00).

**Q.** And the “OR (95% CI), negative biopsy at 2 years” value ([2]; enzalutamide vs AS, exact logistic regression, 2 years, listed as Enzalutamide)?
**A.** Its value is 1.6 (0.66, 4.00).

**Q.** And the “likelihood of a negative biopsy at one year compared to the control population” value ([2]; one year)?
**A.** Its value is “at least three times more likely”.

**Q.** What about the “Median Progression Free Survival / median time to pathological or therapeutic prostate cancer progression” value ([3]; FAS, Kaplan-Meier, NR = not reached) of the same compound?
**A.** The value was “not reached”.

**Q.** And the “No. Censored (progression free survival), %” value ([3]; FAS, N = 114)?
**A.** Its value is 71.9%.

**Q.** What about the “No. of Events (prostate cancer progression), %” value ([3]; FAS, N = 114, 160 mg/day) of the same compound?
**A.** Its value is 28.1%.

**Q.** And the “reduction in risk of prostate cancer progression” value ([3]; compared to patients on active surveillance)?
**A.** The value was 46%.

**Q.** And the “Hazard Ratio (95% CI), time to prostate cancer progression” value ([3]; FAS)?
**A.** Its value is 0.542 (0.330, 0.892).

**Q.** And the “Hazard Ratio (95% CI), time to prostate cancer progression” value ([3]; FAS, listed as Enzalutamide)?
**A.** The value was 0.54 (0.33, 0.89).

**Q.** What about the “Incidence of a secondary rise in serum PSA at 1 year, PSA response, %” value ([4]; 1 year, n = 114) of the same compound?
**A.** Its value is “(24.6) %”.

**Q.** What about the “Incidence of a secondary rise in serum PSA at 2 years, PSA response, %” value ([4]; 2 years, n = 100) of the same compound?
**A.** Its value is “(92.0) %”.

**Q.** And the “Median Time to PSA Progression (95% CI)” value ([4]; FAS, Kaplan-Meier)?
**A.** Its value is 14.82.

**Q.** And the “No. Censored (time to PSA progression), %” value ([4]; FAS, N = 114)?
**A.** Its value is 15.8%.

**Q.** What about the “No. of Events (PSA progression), %” value ([4]; FAS, N = 114) of the same compound?
**A.** The value was 84.2%.

**Q.** And the “OR (95% CI), secondary rise in serum PSA at 1 year” value ([4]; enzalutamide vs AS, 1 year)?
**A.** Its value is 0.1 (0.08, 0.26).

**Q.** What about the “OR (95% CI), secondary rise in serum PSA at 2 years” value ([4]; enzalutamide vs AS, 2 years) of the same compound?
**A.** The value was 1.1 (0.37, 3.53).

**Q.** And the “Hazard Ratio (95% CI), time to PSA progression” value ([4]; enzalutamide vs AS, FAS)?
**A.** The value was 0.714 (0.525, 0.972).

**Q.** What about the “Hazard Ratio (95% CI), time to PSA progression” value ([4]; enzalutamide vs AS, FAS, listed as Enzalutamide) of the same compound?
**A.** Its value is 0.71 (0.53, 0.97).

**Q.** And the “Time to PSA progression, Median (95% CI)” value ([4]; n = 114)?
**A.** The value was 14.8 months.

**Q.** What about the “PSA rebound following cessation of treatment” value ([4]; observed at month 15 onwards) of the same compound?
**A.** The value was “PSA rebound was demonstrated”.

**Q.** What about the “delay of PSA progression” value ([4]; versus AS) of the same compound?
**A.** Its value is 6 months.

**Q.** What about the “AEs leading to death, %” value ([5]; During 1-year treatment period, n = 112) of the same compound?
**A.** Its value is 0.9%.

**Q.** And the “most common Drug-Related AE: fatigue” value ([5]; human, in vivo)?
**A.** The value was 52.7%.

**Q.** And the “Drug-related AEs leading to discontinuation of study drug, %” value ([5]; human, in vivo, 1 year)?
**A.** The value was 7.1%.

**Q.** And the “Drug-related AEs ≥ grade 3, %” value ([5]; human, in vivo, 1 year)?
**A.** Its value is 5.4%.

**Q.** And the “Drug-related AEs, %” value ([5]; human, in vivo, 1 year)?
**A.** The value was 88.4%.

**Q.** And the “Drug-related SAEs, %” value ([5]; human, in vivo, 1 year)?
**A.** The value was 2.7%.

**Q.** And the “TEAEs ≥ grade 3, %” value ([5]; human, in vivo, 1 year)?
**A.** Its value is 9.8%.

**Q.** What about the “Adverse Event: Alopecia, %” value ([5]; human, in vivo, 12 months) of the same compound?
**A.** Its value is “(9.8%)”.

**Q.** What about the “Adverse Event: Hypertension, %” value ([5]; human, in vivo, 12 months) of the same compound?
**A.** Its value is “(7.1%)”.

**Q.** What about the “Adverse Event: Libido Decreased, %” value ([5]; human, in vivo, 12 months) of the same compound?
**A.** The value was “(8.0%)”.

**Q.** What about the “tolerability of enzalutamide monotherapy” value ([5]; in vivo) of the same compound?
**A.** Its value is “well-tolerated”.
